Literature values, collected in patent US11103501B2, “Dry powder formulation of azole derivative for inhalation” (priority 2011, dated 2021).

Compound: CCC(C)n1ncn(-c2ccc(N3CCN(c4ccc(OCC5COC(Cn6cncn6)(c6ccc(Cl)cc6Cl)O5)cc4)CC3)cc2)c1=O (centres unmarked) [itraconazole]
- water solubility: < 1 µg/mL
- solubility (pII 7): < 1 µg/mL
